What is called melting point is the temperature of the solid-liquid transition. `COc1ccc(C2NCCS2)cc1OC` (stereo not given) came in with a melting point of 54 to 56 °C.

In turn, `CCCCNC(=O)NS(=O)(=O)c1ccc(CCNC(=O)N2Cc3ccc(Cl)cc3C2=O)cc1` came in with a melting point of 208 to 210 °C.

As to `CCc1cc2oc3cc(-c4ccccc4Cl)c4c(c3c2cc1O)C(=O)NC4=O`, the melting point fell in the range of 265 to 268 °C.

In the case of `CCC(=O)N(Cc1cccc2c1S(=O)(=O)N=C2C1=C(O)C(C(C)(C)C)N(Cc2ccc(F)c(C)c2)C1=O)S(C)(=O)=O` (stereo not given), the melting point was 98 to 99.8 °C.

With `CNS(=O)(=O)c1cscc1CCl`, the melting point lay within 75 to 76 °C.

In the case of `O=C1NC(=O)C(Cc2ccc(OCCON=Cc3ccc4ccccc4n3)cc2)S1` (stereo not given), the melting point was in the range of 164 to 166 °C.

`CCOC(=O)C(CC)CCc1cc(-c2ccccc2)nc2ccccc12` (stereo not given) showed a melting point of 76 °C.

`CC(=O)N[C@@H](CSC(=O)C(C)C)C(=O)OC(C)C` returned a melting point of 59 to 59.5 °C.

`CC(=O)SCCCc1ccc(C2OCC(C)(C)CO2)cc1` came in with a melting point of 44 °C.

Molecule `O=C(O)C(=O)c1ccc(F)c(Br)c1` yielded a melting point of 68 to 73 °C.

`NNc1nc(F)c(C(F)(F)F)cc1Cl` displayed a melting point of 104 to 106 °C.

The molecule `CC1(C)CCSc2ccc(-c3cc(-c4ccc(C(=O)O)cc4)ccc3-c3ccccc3)cc21` came in with a melting point of 51 °C.

For `CC(=O)NC[C@H]1CN(c2ccc(-n3cnnc3)c(F)c2)C(=O)O1`, the melting point fell in the range of 204 to 206 °C.

For the molecule `O=C(Nc1ccc(-n2nccn2)c(F)c1)OCc1ccccc1`, the melting point was 99.5 to 101 °C.

Take `C#Cc1cn(C2CC(O)C(CO)O2)c(=O)nc1N` (stereo not given): the melting point lay within 162 to 165 °C.

`COc1ccc(Cc2ccc(C(=O)O)cc2)cc1` came in with a melting point of 152 to 153 °C.

Take `COc1ccc(Sc2nc(-c3ccccc3)cnc2N)cc1`: the melting point lay within 116 to 118 °C.

For the molecule `COc1cccc(C2OCC(C)(C)C2(O)C(C)(C)C)c1` (stereo not given), the melting point lay in the range of 83 to 83.5 °C.

Take `CSC(CC(=O)O)c1ccncc1` (stereo not given): the melting point fell in the range of 187 to 189 °C.

Molecule `CC(C)NNc1ncnc2c1cnn2C` registered a melting point of 57 °C.

As to `O=C(NCCCCOc1ccc(-n2ccnc2)cc1)c1ccc(Cl)cc1`, the melting point lay within 138 to 139 °C.

Molecule `O=C1SCCN1Cc1ccccc1[N+](=O)[O-]` came in with a melting point of 92 to 93 °C.

Molecule `O=C1NC(=O)C(Cc2ccc(OCCON=Cc3cnc4ccccc4c3)cc2)S1` (stereo not given) gave a melting point of 182 to 184 °C.

The molecule `CC1(c2ccc(N)cc2)C(=O)Nc2cc(Cl)ccc2C1=O` (stereo not given) displayed a melting point of 155 to 156 °C.

In the case of `Nc1ccc2sc(C=Cc3ccccc3)nc2c1`, the melting point was 154 to 156 °C.

`CCC(CC)Nc1c([N+](=O)[O-])cc(C)c(COC(=O)NC)c1[N+](=O)[O-]` gave a melting point of 117 to 120 °C.

`O=c1oc(-c2ccccc2)cc(O)c1Sc1cccc(Cl)c1` had a melting point of 181 to 182 °C.

`CC(c1ccc2ccccc2c1)N(O)C(=O)NO` (stereo not given) gave a melting point of 148 to 150 °C.

`CC(=O)Nc1ccc2c(c1)N1CCCN=C1S2` displayed a melting point of 178 °C.

In turn, `CCCCc1ncc(/C=C(\Cc2cccs2)C(=O)O)n1Cc1ccccc1[N+](=O)[O-]` gave a melting point of 205 to 206 °C.

`C#CCN(C)C(=O)NC` registered a melting point of 68 to 69 °C.

`O=C(CCl)Nc1ccncc1O` yielded a melting point of 155 to 158 °C.

The molecule `Cn1ncc(CN2C(=O)c3ccccc3C2=O)c1-c1ccc(Cl)cc1C(=O)c1ccccc1F` registered a melting point of 153 to 155 °C.

Turning to `COC(=O)c1cc(NC(C)=O)c2cc(Cc3ccc(F)cc3)cnc2c1O`, the melting point is 243 to 245 °C.

`COc1cc(OC)c2c(=O)c3oc4cc(OC)ccc4c3oc2c1` returned a melting point of 272 to 274 °C.

For the molecule `CON(c1ccc([N+](=O)[O-])cc1Cl)S(=O)(=O)c1cccc(C(F)(F)F)c1`, the melting point lay within 95.5 to 96.5 °C.

Regarding `CC(C)(C)c1cc(SCc2ccc(-c3nnn[nH]3)cc2)cc(C(C)(C)C)c1`, the melting point was 187 to 189 °C.

`O=C(O)c1c(Cc2cc3c(cc2Cl)OCO3)c(-c2cccs2)nn1CC1CCCC(C(=O)O)C1` (stereo not given): the melting point was greater than 260 °C.

As to `COc1cc(C(C)=O)c(O)cc1OCCCCl`, the melting point was in the range of 99 to 101 °C.

Turning to `CC(=O)Nc1ccc(C(=O)c2ccncc2)cc1`, the melting point worked out at 215 °C.

As to `O=S(=O)(c1ccc(Cl)cc1)N1CCCC1c1ccc(F)c(Cl)c1` (racemic), the melting point was found to be 119 °C.

In the case of `O=C(Nc1cccc(S(=O)(=O)NCc2ccccn2)c1)c1cnn2c(C(F)F)cc(-c3ccc(C(F)(F)F)cc3)nc12`, the melting point is 208 °C.

In turn, `Cc1cc(C2=NNC(C(N)=O)Cc3cc4c(cc32)OCO4)ccc1[N+](=O)[O-]` (stereo not given) yielded a melting point of 246 to 249 °C.

The molecule `CN(C)C1(c2ccc(F)cc2)CCC2(CC1)NCCc1c2[nH]c2ccccc12` (stereo not given) returned a melting point of 249 to 250 °C.

For the molecule `COC(=O)Cc1nc(-c2cc(C(C)(C)C)c(O)c(C(C)(C)C)c2)oc1C`, the melting point lay in the range of 121 to 123 °C.

`CSc1n[nH]c(NC(=O)c2ccccc2O)n1` displayed a melting point of 306 to 309 °C.

With `O=c1[nH]c2ccc(Br)cc2cc1Cc1ccccc1`, the melting point stood at 263 °C.

As for `CCc1nn(CCO)c(CC)c1Oc1cc(C#N)cc(SC)c1`, the melting point was 72 °C.

For the molecule `Clc1ccc(Nc2nc(-c3cccc(Cl)n3)nc3ccccc23)cc1`, the melting point lay within 212 to 213 °C.

Molecule `CC(O)C#Cc1cc(C(C)Nc2nc(N)nc(C(C)(C)F)n2)ccc1F` (stereo not given) had a melting point of 119 to 122 °C.

In turn, `C=CCOc1ccc2c(=O)c3ccccc3oc2c1C(=O)C=Cc1ccccc1` yielded a melting point of 150 to 152 °C.

`Cc1nn(C2CCCC2O)c(N)c1C#N` (stereo not given) gave a melting point of 157 to 159 °C.

In turn, `O=C(CCCN1CCC(=C(c2ccccc2)c2ccccc2)CC1)c1ccc(F)cc1` showed a melting point of 111 to 114 °C.

Molecule `CN(C(=O)CN(C(=O)CNC(=O)Nc1cccc(/C=C/CO)c1)c1ccccc1)c1ccccc1` displayed a melting point of 85 °C.

Consider `Nc1c(C(=O)O)c(=O)[nH]c2ccccc12`, for which the melting point was greater than 250 °C.

Molecule `COc1ccc(C(CI)(OC)OC)cc1` came in with a melting point of 54 to 55 °C.

For `O=C1NC(=O)C(c2ccc3c(c2)CCCC3)S1` (stereo not given), the melting point lay within 157 to 158 °C.

Molecule `CNS(=O)(=O)c1cccc(-c2cnc3[nH]cc(C(=O)C(C)(C)C)c3n2)c1` returned a melting point of 245 to 247 °C.

`CCOC(=O)C=Cc1ccc(OC2CCCCO2)cc1` (stereo not given) yielded a melting point of 52 to 53 °C.

As to `O=C(COc1ccccc1)NCCCn1ccnc1`, the melting point lay within 91 to 93 °C.

On to `O=C(O)c1ccccc1COc1ccc(CCCO)cc1`, for which the melting point lay within 139 to 140 °C.

Turning to `COc1ccc(C(O)c2cccnc2)cn1` (stereo not given), the melting point lay within 129 to 130 °C.

Turning to `Cn1nc(C(=O)NCc2ccc(Cl)cc2)c(=O)c2cc(C#CCCO)ccc21`, the melting point lay in the range of 227 to 229 °C.

For the molecule `COc1cc(C)ccc1-c1nc(C)c(-c2cccnc2)n1O`, the melting point was 75 to 80 °C.

Consider `CCC(=O)Nc1c(C(O)(C(F)(F)F)C(F)(F)F)ccc2ccccc12`, for which the melting point was 118 to 119 °C.

The molecule `OCc1nnc2n1-c1ccc(Cl)cc1C(c1ccccc1)=NC2` had a melting point of 204 to 206 °C.

The molecule `O=C1CCC(c2ccccc2)(c2ccccc2)[C@@H]2CN(C(=O)Cc3ccccc3)C[C@H]12` (racemic) gave a melting point of 173 °C.

In turn, `N#CC(C#N)=C1N(CCCN2CCCCC2)CCN1CCN1CCCCC1` showed a melting point of 88 to 89 °C.

As for `C=CCOc1ccccc1S(=O)(=O)NC(=O)Nc1nc(C)cc(C)n1`, the melting point fell in the range of 199 to 200 °C.

The molecule `COc1ccc(-c2ccc3c(n2)[nH]c2ccccc23)cc1` showed a melting point greater than 220 °C.

Molecule `CN(C(=S)c1ccc2nonc2c1)C1CCOCC1` had a melting point of 174 to 175 °C.

In the case of `COc1ccc(OC)c(-c2cc(OC)cc3c2OC(CN)C3)c1` (stereo not given), the melting point fell in the range of 128 to 130 °C.

In turn, `O=[N+]([O-])c1cc(-c2ncnc(C(F)F)c2Cl)c(Cl)cc1Cl` had a melting point of 107 to 109 °C.

Take `Cc1nc(-c2ccc(NCC(=O)O)cc2)no1`: the melting point lay in the range of 178 to 181 °C.

As for `CCCCCCCCCCCCCCCCN(CCCCCCCCCCCCCCCC)C(CCCCN)C(=O)O` (stereo not given), the melting point was 124 to 125 °C.

In turn, `CC(Oc1ccc(Br)cc1)c1ccnc2ncnn12` (stereo not given) gave a melting point of 121 to 124 °C.

The molecule `CC(C#N)=CCN1C(=O)c2ccccc2S1(=O)=O` returned a melting point of 107 to 108 °C.

`O=C(Cn1cnnn1)OCc1ccccc1` showed a melting point of 69 to 72 °C.

`CCN(CC)CCNc1nc2cccnc2n(-c2ccc(OC)cc2)c1=O` returned a melting point of 167 to 168 °C.

`O=C(O)Cc1ccnc2c(NC(=O)c3c(Cl)cccc3Cl)cccc12`: the melting point fell in the range of 228 to 230 °C.

Take `CCOC(=O)c1c(C(=O)OCC)c(-c2ccc3c(c2)OCO3)c2c3c(ccc2c1O)OCO3`: the melting point is 192 to 194 °C.

As for `COc1n[nH]c(=O)n1O`, the melting point is 211 °C.

On to `NC(=O)c1ccc(F)c2c1OCC=C2`, for which the melting point lay in the range of 152 to 154 °C.

In turn, `N#Cc1ccc(-c2cnc(-c3ccc(C#N)cc3)nc2)cc1` gave a melting point of 305 to 306 °C.

The molecule `O=C(N[C@H](Cc1ccc(C(F)(F)F)cc1)[C@@H](O)c1cccc2ccccc12)c1ccc(C(F)(F)F)cc1` (racemic) had a melting point of 232 to 233 °C.

Regarding `COC1=CC(C)(O)C(CCC(=O)O)C=C1` (stereo not given), the melting point was found to be 142 °C.

As for `Clc1cccc2cnsc12`, the melting point is 50 to 51 °C.

`CCN(CC)CCCN1C(=O)NC(Cc2c[nH]c3ccccc23)C1=O` (stereo not given): the melting point was 90 °C.

`CC1(C)Cc2cc(N)c3c(c2C(c2ccccc2)=N1)CC(C)(C)O3` gave a melting point of 158 to 162 °C.

Molecule `CCOC(=O)C1=C(C)NC(C)=C(C(=O)c2ccco2)C1c1ccccc1[N+](=O)[O-]` (stereo not given) displayed a melting point of 133 to 134 °C.

Molecule `CCOC(=O)c1cc2c(cn1)[nH]c1ccc([N+](=O)[O-])cc12` gave a melting point of 320 to 325 °C.

The molecule `COC(=O)c1ccc(/C=C/c2ccc(SC)cc2)nc1` returned a melting point of 157 to 159 °C.

In the case of `Cc1cccc2c3c(n(Cc4ccccc4)c12)CCCC3=O`, the melting point lay within 165 to 166 °C.

Regarding `O=c1cc(O)c2ccc(F)cc2o1`, the melting point fell in the range of 229 to 230 °C.

`CCCCCCc1ccc2c3ccc(C=O)cc3n(C)c2c1` had a melting point of 55 to 56 °C.

(Values after a melting point compilation (Tetko et al.; mined from patent text by program, amines drawn as free bases though some values may be those of a salt).)
